What was measured:
Format in all cases: in vivo, mouse (C57BL/6)
[1] = tested on: MALA-complicated CKD model mice; assay: Survival analysis in MALA-complicated chronic kidney disease (CKD) model mice, Compound A (Test Example 2); conditions: for survival rate as compared to vehicle alone: 10 mg/kg oral
Text: (§1) All mice used in Examples were 7- to 13-week-old wild-type C57BL/6 male mice obtained from CLEA Japan, Inc. The mice were fed ad libitum on a 12-hour light/12-hour dark cycle in a specific pathogen-free facility.
(§2) In statistical analysis in Examples, power calculation for determining a sample size was not performed. Mice that died of lactic acidosis before treatment with a vehicle or Compound A were excluded from mice to be analyzed. For a comparison of normally distributed data between groups, analysis was performed using unpaired Student's t-test. A difference in survival rate was analyzed by log-rank (Mantel-Cox) test through use of GraphPad Prism software.
(§3) 7-Week-old wild-type C57BL/6 male mice were fed ad libitum with a standard or 0.2% adenine feed for 6 weeks. The population fed with the 0.2% adenine feed was used as CKD model mice.
(§4) Further, the CKD model mice were administered with 0.5 mg/g body weight of metformin on day 1 to produce a MALA-complicated CKD mouse model. After 4 hours from the metformin administration, a whole blood sample (5 μl) was collected from the tail vein, and a blood lactate level was measured using Lactate Pro Test Meter and Lactate Pro Test Strip (Cycle Classic Imports). […] Kaplan-Meier survival analysis was performed for those mice.

MALA model mice = assay: Survival analysis in metformin-associated lactic acidosis (MALA) model mice (Test Example 1); conditions: for survival rate as compared to vehicle alone: 30 mg/kg oral
Text: as §1, §2
In the morning and evening of day 1, and the morning of day 2, 0.25 mg/g body weight of metformin dissolved in distilled water was orally administered to 8-week-old wild-type C57BL/6 male mice to produce MALA model mice. Immediately after the metformin administration to the model mice on day 2, a vehicle (0.5% methyl cellulose; 64625; Sigma-Aldrich) or 30 mg/kg body weight of Compound A (produced in Example 1) was orally administered. After 4 hours from the oral administration, the model mice were administered with 0.4 mg/g body weight of lactic acid dissolved in 0.9% NaCl by intraperitoneal injection. Kaplan-Meier survival analysis was performed for those mice.

[2] = tested on: MALA-complicated CKD model mice; assay: Survival analysis in MALA-complicated chronic kidney disease (CKD) model mice, Compound B (Test Example 3); conditions: for survival rate as compared to vehicle alone: 30 mg/kg oral
Text: as §1, §2, §3, §4

In the case of `Cc1nc(CC2CCN(c3ccc(-c4ccc(CO)cc4)cc3)CC2)nc(C(=O)NCC(=O)O)c1O` [Compound A, ({[5-hydroxy-2-({1-[4′-(hydroxymethyl)biphenyl-4-yl]piperidin-4-yl}methyl)-6-methylpyrimidin-4-yl]carbonyl}amino)acetic acid], the “survival rate as compared to vehicle alone (Kaplan-Meier, FIG. 2)” value ([1]; 10 mg/kg body weight oral, single, mice with blood lactate more than 8 mM after metformin 0.5 mg/g) is reported as “significantly high survival rate”, the “survival rate as compared to vehicle alone” value ([1]; after 24 hours) is reported as “about 2.9 fold” and the “survival rate as compared to vehicle alone” value ([1]; after 48 hours) is reported as “about 5.8 fold”. For the same molecule, the “survival rate as compared to vehicle alone” value ([1]; after 72 hours) was “about 5.8 fold”, the “survival rate as compared to vehicle alone (Kaplan-Meier, FIG. 1)” value (MALA model mice; 30 mg/kg body weight oral, single, metformin 0.25 mg/g x3, lactic acid 0.4 mg/g i.p. after 4 hours) was “significantly high survival rate” and the “survival rate as compared to vehicle alone” value (MALA model mice; after 24 hours) was “about 1.8 fold”. The “survival rate as compared to vehicle alone” value (MALA model mice; after 48 hours) was “about 2.8 fold”, the “survival rate as compared to vehicle alone” value (MALA model mice; after 72 hours) was “about 2.6 fold” and the “survival rate as compared to vehicle alone” value (MALA model mice; after 96 hours) was “about 2.4 fold”. For the same molecule, the “survival rate as compared to vehicle alone” value (MALA model mice; after 120 hours) was “about 2.6 fold”.
`Cc1nc(CC2CCN(c3ccc(-c4ccc(C[C@H](C)O)cc4)cc3)CC2)nc(C(=O)NCC(=O)O)c1O` [Compound B, [({5-hydroxy-2-[(1-{4′-[(2S)-2-hydroxypropyl]biphenyl-4-yl}piperidin-4-yl)methyl]-6-methylpyrimidin-4-yl}carbonyl)amino]acetic acid] was tested, and the “survival rate as compared to vehicle alone (Kaplan-Meier, FIG. 3)” value ([2]; 30 mg/kg body weight oral, single, mice with blood lactate more than 8 mM after metformin 0.5 mg/g) was “significantly high survival rate”, the “survival rate as compared to vehicle alone” value ([2]; after 24 hours) was “about 1.7 fold” and the “survival rate as compared to vehicle alone” value ([2]; after 48 hours) was “about 2.0 fold”. The “survival rate as compared to vehicle alone” value ([2]; after 72 hours) was “about 2.0 fold”.
